# Source: ChEMBL document CHEMBL1135556, “alpha-bromoacetophenone derivatives as neutral protein tyrosine phosphatase inhibitors: structure-Activity relationship” (Bioorg Med Chem Lett, 2002)
# What was measured:
# [1] = molecular target: Tyrosine-protein phosphatase non-receptor type 6, SHP-1 (Homo sapiens) (UniProt P29350); experiment: Dissociation constant towards SHP-1 receptor-inhibitor complex was determined using PNP as substrate
# [2] = molecular target: Tyrosine-protein phosphatase non-receptor type 6, SHP-1 (Homo sapiens) (UniProt P29350); experiment: First-order rate constant (K inact) for conversion of the ExI complex (SHP-1 -inhibitor complex) into the covalent adduct, EI was determined using PNP as substrate
# [3] = molecular target: Tyrosine-protein phosphatase non-receptor type 6, SHP-1 (Homo sapiens) (UniProt P29350); experiment: Ratio between dissociation constant and First-order rate constant (K inact / Ki) was determined
# [4] = molecular target: T1, Tyrosine-protein phosphatase non-receptor type 1 (Homo sapiens) (UniProt P18031); experiment: First-order rate constant (K inact) for conversion of the ExI complex (SHP 1 receptor -inhibitor complex) into the covalent adduct, EI was determined using PNP as substrate
# T1 sequence (whole entry): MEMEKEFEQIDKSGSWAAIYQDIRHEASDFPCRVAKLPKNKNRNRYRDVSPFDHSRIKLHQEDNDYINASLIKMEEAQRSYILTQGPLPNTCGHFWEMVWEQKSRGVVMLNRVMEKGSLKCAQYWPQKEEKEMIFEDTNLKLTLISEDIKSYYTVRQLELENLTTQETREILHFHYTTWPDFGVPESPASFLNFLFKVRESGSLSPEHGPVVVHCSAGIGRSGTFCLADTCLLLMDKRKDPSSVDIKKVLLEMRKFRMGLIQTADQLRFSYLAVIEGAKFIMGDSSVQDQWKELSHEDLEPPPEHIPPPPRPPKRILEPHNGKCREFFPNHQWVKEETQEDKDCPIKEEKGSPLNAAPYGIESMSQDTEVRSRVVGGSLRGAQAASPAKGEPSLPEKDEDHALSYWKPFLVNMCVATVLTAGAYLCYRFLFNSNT
# [5] = molecular target: T2, Tyrosine-protein phosphatase non-receptor type 6 (Homo sapiens, UniProt P29350); experiment: Dissociation constant towards SHP 1 receptor-inhibitor complex was determined using PNP as substrate
# [6] = molecular target: T2, Tyrosine-protein phosphatase non-receptor type 6
# [7] = molecular target: Tyrosine-protein phosphatase non-receptor type 6, SHP-1 (Homo sapiens) (UniProt P29350); experiment: Dissociation constant towards SHP 1 receptor-inhibitor complex was determined using PNP as substrate
# [8] = molecular target: Tyrosine-protein phosphatase non-receptor type 6, SHP-1 (Homo sapiens) (UniProt P29350); experiment: First-order rate constant (K inact) for conversion of the ExI complex (SHP 1 protein -inhibitor complex) into the covalent adduct, EI was determined using PNP as substrate
# Chain of Tyrosine-protein phosphatase non-receptor type 6, SHP-1 (Homo sapiens) (P29350 whole entry, looked up): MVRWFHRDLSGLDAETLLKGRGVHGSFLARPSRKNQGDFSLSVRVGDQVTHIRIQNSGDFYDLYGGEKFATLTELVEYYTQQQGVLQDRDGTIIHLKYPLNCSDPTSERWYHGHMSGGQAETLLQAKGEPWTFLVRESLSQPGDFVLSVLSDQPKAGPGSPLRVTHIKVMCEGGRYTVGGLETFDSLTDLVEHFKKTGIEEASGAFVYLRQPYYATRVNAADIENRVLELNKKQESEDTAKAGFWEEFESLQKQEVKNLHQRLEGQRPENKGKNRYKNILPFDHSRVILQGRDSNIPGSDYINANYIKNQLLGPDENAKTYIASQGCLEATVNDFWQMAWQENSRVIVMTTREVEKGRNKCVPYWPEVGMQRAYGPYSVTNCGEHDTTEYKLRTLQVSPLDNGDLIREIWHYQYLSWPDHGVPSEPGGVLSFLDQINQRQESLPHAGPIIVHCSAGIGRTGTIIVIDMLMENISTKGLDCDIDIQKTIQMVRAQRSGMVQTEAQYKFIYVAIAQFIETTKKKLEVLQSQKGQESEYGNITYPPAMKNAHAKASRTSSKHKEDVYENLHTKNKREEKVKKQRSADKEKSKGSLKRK
# T2 sequence (P29350 whole entry): as the sequence (P29350 whole entry, looked up) above
Compound,Ki [1],kinact [2],Ratio [3],kinact [4],Ki [5],kinact [6],Ki [7],kinact [8]
O=C(CCl)c1ccc(O)c(O)c1,1400 µM,0.59 min⁻¹,420 M⁻¹ min⁻¹,–,–,–,–,–
N=C(N)NCCCC(NC(=O)[C@H](CCCNC(=N)N)NC(=O)CNC(=O)COc1ccc(C(=O)CBr)cc1)C(=O)O (some centres not stated),–,–,6300 M⁻¹ min⁻¹,4.8 min⁻¹,–,–,–,–
O=C(CBr)c1ccccc1,81 µM,0.58 min⁻¹,7100 M⁻¹ min⁻¹,–,–,–,–,–
O=C(CCl)c1ccccc1 [PHENACYL CHLORIDE],480 µM,0.21 min⁻¹,430 M⁻¹ min⁻¹,–,–,–,–,–
O=C(CCl)c1ccc(F)cc1,380 µM,0.22 min⁻¹,580 M⁻¹ min⁻¹,–,–,–,–,–
O=C(O)COc1ccc(C(=O)CCl)cc1,2500 µM,1.8 min⁻¹,710 M⁻¹ min⁻¹,–,–,–,–,–
O=C(CCl)c1ccc(F)cc1F,17500 µM,2.1 min⁻¹,120 M⁻¹ min⁻¹,–,–,–,–,–
O=C(CBr)c1ccc(-c2ccccc2)cc1,14 µM,0.59 min⁻¹,41 M⁻¹ min⁻¹,–,–,–,–,–
O=C(O)CCC(NC(=O)[C@H](CCC(=O)O)NC(=O)CNC(=O)COc1ccc(C(=O)CBr)cc1)C(=O)O (some centres not stated),2.8 µM,1.2 min⁻¹,–,–,29 µM,6.6 min⁻¹,–,–
O=C(CBr)c1ccc2ccccc2c1,25 µM,0.48 min⁻¹,20000 M⁻¹ min⁻¹,–,–,–,–,–
O=C(O)COc1ccc(C(=O)CBr)cc1,–,–,9300 M⁻¹ min⁻¹,–,–,–,193 µM,1.8 min⁻¹
O=C(CBr)c1cccc2ccccc12,92 µM,0.86 min⁻¹,9400 M⁻¹ min⁻¹,–,–,–,–,–
O=C(CBr)c1ccccn1,173 µM,1.3 min⁻¹,7500 M⁻¹ min⁻¹,–,–,–,–,–
NC(N)=NCCCC(NC(=O)[C@H](CCCN=C(N)N)NC(=O)CNC(=O)COc1ccc(C(=O)CBr)cc1)C(=O)O (some centres not stated),–,–,–,–,–,–,760 µM,–
O=C(CBr)c1ccc(F)cc1,56 µM,0.51 min⁻¹,9100 M⁻¹ min⁻¹,–,–,–,–,–
O=C(CBr)c1ccc(O)cc1,43 µM,0.4 min⁻¹,9300 M⁻¹ min⁻¹,–,–,–,–,–
O=C(CBr)c1ccc(C(F)(F)F)cc1,14 µM,0.37 min⁻¹,26000 M⁻¹ min⁻¹,–,–,–,–,–
O=C(CBr)c1ccc(-c2ccccc2C(=O)O)cc1,–,–,4550 M⁻¹ min⁻¹,–,–,–,220 µM,1 min⁻¹
